In patent US10472391B2 (priority 2013, dated 2019):

Tests used:
[1] = tested on: A549 cells; assay type: cell-based
[2] = tested on: Hla-mediated cytotoxicity; conditions: cited from earlier work
[3] = target: T1, ADAM10 (Homo sapiens, UniProt O14672); test: IC50 of GI254023X (assay not given)
T1 sequence (O14672 214-748): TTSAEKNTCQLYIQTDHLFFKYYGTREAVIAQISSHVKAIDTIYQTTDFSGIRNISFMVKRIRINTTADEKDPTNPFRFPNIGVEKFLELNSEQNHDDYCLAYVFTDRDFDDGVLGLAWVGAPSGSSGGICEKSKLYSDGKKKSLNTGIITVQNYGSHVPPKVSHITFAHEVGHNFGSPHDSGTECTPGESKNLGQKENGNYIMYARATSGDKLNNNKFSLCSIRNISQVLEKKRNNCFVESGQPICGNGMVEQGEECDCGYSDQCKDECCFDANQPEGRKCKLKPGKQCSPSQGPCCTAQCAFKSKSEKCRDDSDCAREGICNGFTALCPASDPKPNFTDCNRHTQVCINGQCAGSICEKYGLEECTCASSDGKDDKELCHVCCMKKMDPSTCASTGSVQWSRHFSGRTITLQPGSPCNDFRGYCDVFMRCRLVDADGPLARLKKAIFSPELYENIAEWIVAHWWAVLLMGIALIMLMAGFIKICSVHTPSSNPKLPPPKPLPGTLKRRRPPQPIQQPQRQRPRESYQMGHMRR

SMILES: CNC(=O)[C@@H](NC(=O)[C@H](CCCc1ccccc1)[C@H](C)N(O)C=O)C(C)(C)C [GI254023X, (R)—N—((S)-3,3-dimethyl-1-(methylamino)-1-oxobutan-2-yl)-2-((S)-1-(N-hydroxyformamido)-ethyl)-5-phenylpentanamide]
- inhibition of binding of radiolabelled Hla to A549 cells [1]: inhibition of binding of radiolabelled Hla to A549 cells
- effect on Hla-mediated cytotoxicity [2]: prevents Hla-mediated cytotoxicity
- IC50 [3]: ~5 µM
